{
  "source": "paper PMC5218480",
  "about": "(PLoS ONE, 2017)",
  "test_system": "MV-4-11 cells",
  "experiment": "Gene expression microarray analysis (Affymetrix PrimeView) and GSEA",
  "assay_type": "cell-based, human",
  "set-up": "RFU PODN (11730768_x_at) / Fold change /veh PODN (11730768_x_at) / RFU LINC00158 (11744669_a_at) / Fold change /veh LINC00158 (11744669_a_at) / RFU DUSP10 (11751237_a_at) / Fold change /veh DUSP10 (11751237_a_at) / RFU ID3 (11757404_x_at) / Fold change /veh ID3 (11757404_x_at) / RFU PLEKHG5 (11737974_s_at) / Fold change /veh PLEKHG5 (11737974_s_at) / RFU LRRC4B (11730491_at) / Fold change /veh LRRC4B (11730491_at) / RFU GIMAP4 (11747438_a_at) / Fold change /veh GIMAP4 (11747438_a_at) / RFU KRT8 (11758183_x_at) / Fold change /veh KRT8 (11758183_x_at) / RFU CNN1 (11734310_a_at) / Fold change /veh CNN1 (11734310_a_at) / RFU VPS37D (11726825_at) / Fold change /veh VPS37D (11726825_at) / RFU C10orf10 (11716522_x_at) / Fold change /veh C10orf10 (11716522_x_at) / RFU KIR2DL2 /// KIR2DL4 /// KIR2DL5A /// KIR2DL5B /// KIR2DS1 /// KIR2DS2 /// KIR2DS3 /// KIR2DS4 /// KIR3DL3 /// KIR3DL3 /// KIR3DS1 (11738374_at) / Fold change /veh KIR2DL2 /// KIR2DL4 /// KIR2DL5A /// KIR2DL5B /// KIR2DS1 /// KIR2DS2 /// KIR2DS3 /// KIR2DS4 /// KIR3DL3 /// KIR3DL3 /// KIR3DS1 (11738374_at) / RFU C1QL1 (11718748_at) / Fold change /veh C1QL1 (11718748_at) / RFU TMPRSS4 (11747572_a_at) / Fold change /veh TMPRSS4 (11747572_a_at) / RFU HAMP (11756126_x_at) / Fold change /veh HAMP (11756126_x_at) / RFU RNFT2 (11725882_a_at) / Fold change /veh RNFT2 (11725882_a_at) / RFU NR4A2 (11747474_a_at) / Fold change /veh NR4A2 (11747474_a_at) / RFU ABCC12 (11746883_a_at) / Fold change /veh ABCC12 (11746883_a_at) / RFU TMEM136 (11760407_x_at) / Fold change /veh TMEM136 (11760407_x_at) / RFU CLDN22 /// WWC2 (11732394_at) / Fold change /veh CLDN22 /// WWC2 (11732394_at) / RFU HLA-DPB1 (11760878_x_at) / Fold change /veh HLA-DPB1 (11760878_x_at) / RFU SPINT1 (11716480_a_at) / Fold change /veh SPINT1 (11716480_a_at) / RFU GAP43 (11754022_s_at) / Fold change /veh GAP43 (11754022_s_at) / RFU A4GNT (11735810_at) / Fold change /veh A4GNT (11735810_at) / RFU PRB3 (11715151_x_at) / Fold change /veh PRB3 (11715151_x_at) / RFU TUBB4B (11761932_at) / Fold change /veh TUBB4B (11761932_at) / RFU CAPN14 (11732068_a_at) / Fold change /veh CAPN14 (11732068_a_at) / RFU TMCC2 (11721928_a_at) / Fold change /veh TMCC2 (11721928_a_at) / RFU IRGQ (11745062_a_at) / Fold change /veh IRGQ (11745062_a_at) / RFU FAM174B (11720279_a_at) / Fold change /veh FAM174B (11720279_a_at) / RFU TMPRSS4 (11748680_a_at) / Fold change /veh TMPRSS4 (11748680_a_at) / RFU FAM212B (11763350_a_at) / Fold change /veh FAM212B (11763350_a_at) / RFU PLEKHG5 (11743358_a_at) / Fold change /veh PLEKHG5 (11743358_a_at) / RFU ZSCAN30 (11745921_a_at) / Fold change /veh ZSCAN30 (11745921_a_at) / RFU CMKLR1 (11741424_a_at) / Fold change /veh CMKLR1 (11741424_a_at) / RFU LOC101060620 /// MAPK8IP1 (11723275_at) / Fold change /veh LOC101060620 /// MAPK8IP1 (11723275_at) / RFU SPTSSB (11747773_x_at) / Fold change /veh SPTSSB (11747773_x_at) / RFU PRSS12 (11739890_at) / Fold change /veh PRSS12 (11739890_at) / RFU BIN1 (11741810_x_at) / Fold change /veh BIN1 (11741810_x_at) / RFU WNT11 (11732464_a_at) / Fold change /veh WNT11 (11732464_a_at) / RFU C10orf10 (11716521_a_at) / Fold change /veh C10orf10 (11716521_a_at) / RFU C5orf56 (11738089_at) / Fold change /veh C5orf56 (11738089_at) / RFU CYB561 (11721691_x_at) / Fold change /veh CYB561 (11721691_x_at) / RFU ANKRD19P (11752326_a_at) / Fold change /veh ANKRD19P (11752326_a_at) / RFU OR2T12 /// OR2T33 /// OR2T8 (11738714_s_at) / Fold change /veh OR2T12 /// OR2T33 /// OR2T8 (11738714_s_at) / RFU VCAN (11748164_a_at) / Fold change /veh VCAN (11748164_a_at) / RFU JSRP1 (11732532_at) / Fold change /veh JSRP1 (11732532_at) / RFU KRTAP10-11 (11738290_x_at) / Fold change /veh KRTAP10-11 (11738290_x_at) / RFU MYO3A (11730013_a_at) / Fold change /veh MYO3A (11730013_a_at) / RFU EBF3 (11725865_a_at) / Fold change /veh EBF3 (11725865_a_at) / RFU CAMK2N1 (11719241_x_at) / Fold change /veh CAMK2N1 (11719241_x_at) / RFU C5orf56 (11738088_a_at) / Fold change /veh C5orf56 (11738088_a_at) / RFU OLFML3 (11715873_a_at) / Fold change /veh OLFML3 (11715873_a_at) / RFU LOC100653217 /// NTM (11731650_a_at) / Fold change /veh LOC100653217 /// NTM (11731650_a_at) / RFU MAPK11 (11762145_a_at) / Fold change /veh MAPK11 (11762145_a_at) / RFU FIZ1 (11724087_x_at) / Fold change /veh FIZ1 (11724087_x_at) / RFU OASL (11726364_x_at) / Fold change /veh OASL (11726364_x_at) / RFU SOX15 (11748057_x_at) / Fold change /veh SOX15 (11748057_x_at) / RFU CD79A (11719716_a_at) / Fold change /veh CD79A (11719716_a_at) / RFU HIST1H1D (11736915_at) / Fold change /veh HIST1H1D (11736915_at) / RFU CASKIN2 (11723855_a_at) / Fold change /veh CASKIN2 (11723855_a_at) / RFU LOC730098 (11760151_x_at) / Fold change /veh LOC730098 (11760151_x_at) / RFU OR4N2 (11742367_at) / Fold change /veh OR4N2 (11742367_at) / RFU PRRT2 (11749266_a_at) / Fold change /veh PRRT2 (11749266_a_at) / RFU SNX32 (11753110_a_at) / Fold change /veh SNX32 (11753110_a_at) / RFU CDHR5 (11726645_a_at) / Fold change /veh CDHR5 (11726645_a_at) / RFU RCAN1 (11760418_a_at) / Fold change /veh RCAN1 (11760418_a_at) / RFU FAM167A (11723789_a_at) / Fold change /veh FAM167A (11723789_a_at) / RFU FAM26E (11764081_at) / Fold change /veh FAM26E (11764081_at) / RFU ISYNA1 (11749810_s_at) / Fold change /veh ISYNA1 (11749810_s_at) / RFU ACY1 (11761880_at) / Fold change /veh ACY1 (11761880_at) / RFU 11764098_at / Fold change /veh 11764098_at / RFU SAMD14 (11745864_x_at) / Fold change /veh SAMD14 (11745864_x_at) / RFU NPB (11741838_a_at) / Fold change /veh NPB (11741838_a_at) / RFU TMPRSS6 (11731388_a_at) / Fold change /veh TMPRSS6 (11731388_a_at) / RFU KRTAP10-2 (11738614_at) / Fold change /veh KRTAP10-2 (11738614_at) / RFU ARHGAP8 /// PRR5-ARHGAP8 (11727945_x_at) / Fold change /veh ARHGAP8 /// PRR5-ARHGAP8 (11727945_x_at) / RFU KRTAP5-7 /// NADSYN1 (11734609_at) / Fold change /veh KRTAP5-7 /// NADSYN1 (11734609_at) / RFU RASL12 (11751679_a_at) / Fold change /veh RASL12 (11751679_a_at) / RFU CDKN2B (11736163_a_at) / Fold change /veh CDKN2B (11736163_a_at) / RFU PRF1 (11729649_at) / Fold change /veh PRF1 (11729649_at) / RFU, ZNF638 /// ZNF638-IT1 / Fold change vs veh, ZNF638 /// ZNF638-IT1 / RFU, PANK3 / Fold change vs veh, PANK3 / RFU, SH3YL1 / Fold change vs veh, SH3YL1 / RFU, ZEB2 / Fold change vs veh, ZEB2 / RFU, NRIP1 / Fold change vs veh, NRIP1 / RFU, PTTG1IP / Fold change vs veh, PTTG1IP / RFU, CAPN2 / Fold change vs veh, CAPN2 / RFU, MED14 / Fold change vs veh, MED14 / RFU, SNORA58 / Fold change vs veh, SNORA58 / RFU, C1orf63 / Fold change vs veh, C1orf63 / RFU, LRRFIP1 / Fold change vs veh, LRRFIP1 / RFU, NDUFAF7 / Fold change vs veh, NDUFAF7 / RFU, SLC12A2 / Fold change vs veh, SLC12A2 / RFU, IBTK / Fold change vs veh, IBTK / RFU, ESF1 / Fold change vs veh, ESF1 / Fold change vs veh, TMEM50B / RFU, TAOK1 / Fold change vs veh, TAOK1 / RFU, ACBD3 / Fold change vs veh, ACBD3 / RFU, TMA16 / Fold change vs veh, TMA16 / RFU, RWDD3 / Fold change vs veh, RWDD3 / RFU, BCAT1 / Fold change vs veh, BCAT1 / RFU, EDEM3 / Fold change vs veh, EDEM3 / RFU, TMEM33 / Fold change vs veh, TMEM33 / RFU, WDR75 / Fold change vs veh, WDR75 / RFU, AHCTF1 / Fold change vs veh, AHCTF1 / RFU, TFRC / Fold change vs veh, TFRC / RFU, ZDHHC17 / Fold change vs veh, ZDHHC17 / RFU, NOM1 / Fold change vs veh, NOM1 / RFU, ARL8B / Fold change vs veh, ARL8B / RFU, ZBTB11 / Fold change vs veh, ZBTB11 / RFU, TAMM41 / Fold change vs veh, TAMM41 / RFU, KIAA1704 /// LOC100996395 / Fold change vs veh, KIAA1704 /// LOC100996395 / RFU, ING1 / Fold change vs veh, ING1 / RFU, TRMT61B / Fold change vs veh, TRMT61B / RFU, FUBP3 / Fold change vs veh, FUBP3 / RFU, TP53 / Fold change vs veh, TP53 / RFU, TNKS2 / Fold change vs veh, TNKS2 / RFU, ZFP14 / Fold change vs veh, ZFP14 / RFU, ACTR2 / Fold change vs veh, ACTR2 / RFU, PPP3R1 / Fold change vs veh, PPP3R1 / RFU, PIK3R1 / Fold change vs veh, PIK3R1 / RFU, HNRNPA1 / Fold change vs veh, HNRNPA1 / RFU, RNF170 / Fold change vs veh, RNF170 / RFU, ZNF28 / Fold change vs veh, ZNF28 / RFU, RNGTT / Fold change vs veh, RNGTT / RFU, OGT / Fold change vs veh, OGT / RFU, BRD1 / Fold change vs veh, BRD1 / RFU, MARS / Fold change vs veh, MARS / RFU, ZNF655 / Fold change vs veh, ZNF655 / RFU, FAHD1 / Fold change vs veh, FAHD1 / RFU, BDP1 / Fold change vs veh, BDP1 / RFU, LRRCC1 / Fold change vs veh, LRRCC1 / RFU, ARID1A / Fold change vs veh, ARID1A / RFU, ZNF146 / Fold change vs veh, ZNF146 / RFU, ZNF330 / Fold change vs veh, ZNF330 / RFU, GPN3 / Fold change vs veh, GPN3 / RFU, C9orf123 / Fold change vs veh, C9orf123 / RFU, N4BP2L2 / Fold change vs veh, N4BP2L2 / RFU, ARFIP1 / Fold change vs veh, ARFIP1 / RFU, FAM179B / Fold change vs veh, FAM179B / RFU, BCL10 / Fold change vs veh, BCL10 / RFU, UHRF1BP1L / Fold change vs veh, UHRF1BP1L / RFU, BET1 / Fold change vs veh, BET1 / RFU, CNOT2 / Fold change vs veh, CNOT2 / RFU, ZNF268 / Fold change vs veh, ZNF268 / Fold change vs veh, ZNF507 / RFU, DGCR2 / Fold change vs veh, DGCR2 / RFU, WDSUB1 / Fold change vs veh, WDSUB1 / Fold change vs veh, HSP90B1 /// MIR3652 / RFU, ADSS / Fold change vs veh, ADSS / RFU, GK / Fold change vs veh, GK / RFU, ZNF148 / Fold change vs veh, ZNF148 / RFU, TAF9 / Fold change vs veh, TAF9 / RFU, SLC1A5 / Fold change vs veh, SLC1A5 / RFU, SLMO2 / Fold change vs veh, SLMO2 / RFU, ABCC4 / Fold change vs veh, ABCC4 / RFU, LOC101060439 /// RAP1B / Fold change vs veh, LOC101060439 /// RAP1B / RFU, RFX7 / Fold change vs veh, RFX7 / RFU, GTPBP10 / Fold change vs veh, GTPBP10 / RFU, CNEP1R1 / Fold change vs veh, CNEP1R1 / RFU, BIVM-ERCC5 /// ERCC5 / Fold change vs veh, BIVM-ERCC5 /// ERCC5 / RFU, ILF3 / Fold change vs veh, ILF3 / RFU 11762660_at / Fold change /veh 11762660_at / RFU VCAN (11757783_s_at) / Fold change /veh VCAN (11757783_s_at) / RFU DDX43 (11728927_at) / Fold change /veh DDX43 (11728927_at) / RFU KRT8 (11758188_x_at) / Fold change /veh KRT8 (11758188_x_at) / RFU NKD1 (11759106_at) / Fold change /veh NKD1 (11759106_at) / RFU SRD5A1 (11742802_a_at) / Fold change /veh SRD5A1 (11742802_a_at) / RFU TPSAB1 /// TPSB2 (11721975_s_at) / Fold change /veh TPSAB1 /// TPSB2 (11721975_s_at) / RFU GSTM3 (11746129_a_at) / Fold change /veh GSTM3 (11746129_a_at) / RFU IL23R (11737362_x_at) / Fold change /veh IL23R (11737362_x_at) / RFU TMEM51 (11727254_a_at) / Fold change /veh TMEM51 (11727254_a_at) / RFU PIWIL2 (11732686_x_at) / Fold change /veh PIWIL2 (11732686_x_at) / RFU ORM1 (11744905_x_at) / Fold change /veh ORM1 (11744905_x_at) / RFU CCDC152 (11743942_at) / Fold change /veh CCDC152 (11743942_at) / RFU ECM1 (11717891_a_at) / Fold change /veh ECM1 (11717891_a_at) / RFU IL23R (11748794_a_at) / Fold change /veh IL23R (11748794_a_at) / RFU TNFAIP8L3 (11732012_x_at) / Fold change /veh TNFAIP8L3 (11732012_x_at) / RFU MBOAT4 (11741988_at) / Fold change /veh MBOAT4 (11741988_at) / RFU 11764193_at / Fold change /veh 11764193_at / RFU TMEM53 (11763286_at) / Fold change /veh TMEM53 (11763286_at) / RFU MAGEB2 (11727129_at) / Fold change /veh MAGEB2 (11727129_at) / RFU TMEM200A (11744735_a_at) / Fold change /veh TMEM200A (11744735_a_at) / RFU CCDC152 (11751479_a_at) / Fold change /veh CCDC152 (11751479_a_at) / RFU FAM211A (11726209_a_at) / Fold change /veh FAM211A (11726209_a_at) / RFU RGS16 (11746705_a_at) / Fold change /veh RGS16 (11746705_a_at) / RFU VCAN (11755009_s_at) / Fold change /veh VCAN (11755009_s_at) / RFU RHOB (11743442_s_at) / Fold change /veh RHOB (11743442_s_at) / RFU RGS16 (11720943_a_at) / Fold change /veh RGS16 (11720943_a_at) / RFU RGS16 (11720944_at) / Fold change /veh RGS16 (11720944_at) / RFU, VPS4B / Fold change vs veh, VPS4B / RFU, CREB1 / Fold change vs veh, CREB1 / RFU, DNAJC13 / Fold change vs veh, DNAJC13 / RFU, GNAQ / Fold change vs veh, GNAQ / RFU, CDK5R1 / Fold change vs veh, CDK5R1 / RFU, ZRANB3 / Fold change vs veh, ZRANB3 / RFU, CUL4A / Fold change vs veh, CUL4A / RFU, CCNY / Fold change vs veh, CCNY / RFU, UFL1 / Fold change vs veh, UFL1 / RFU, COG3 / Fold change vs veh, COG3 / RFU, DIAPH2 / Fold change vs veh, DIAPH2 / RFU, SKA2 / Fold change vs veh, SKA2 / RFU, AFF3 / Fold change vs veh, AFF3 / RFU, LMF1 / Fold change vs veh, LMF1 / RFU, IPO11 / Fold change vs veh, IPO11 / RFU, DFFB / Fold change vs veh, DFFB / RFU, FOXP1 / Fold change vs veh, FOXP1 / RFU, CARD8 / Fold change vs veh, CARD8 / RFU, STRN3 / Fold change vs veh, STRN3 / RFU, ADK / Fold change vs veh, ADK / RFU, RASSF2 / Fold change vs veh, RASSF2 / RFU, WIPF1 / Fold change vs veh, WIPF1 / RFU, LARP1B / Fold change vs veh, LARP1B / RFU, RASA1 / Fold change vs veh, RASA1 / RFU, RB1 / Fold change vs veh, RB1 / RFU, PPFIA1 / Fold change vs veh, PPFIA1 / RFU, MAT2A / Fold change vs veh, MAT2A / RFU, CCT5 / Fold change vs veh, CCT5 / RFU, WDR92 / Fold change vs veh, WDR92 / RFU, CUX1 / Fold change vs veh, CUX1 / RFU, TTC7A / Fold change vs veh, TTC7A / RFU, TMEM135 / Fold change vs veh, TMEM135 / RFU, DEPTOR / Fold change vs veh, DEPTOR / RFU, CPM / Fold change vs veh, CPM / RFU, DNAJB6 / Fold change vs veh, DNAJB6 / RFU, CACNA2D3 / Fold change vs veh, CACNA2D3 / RFU, DTX4 / Fold change vs veh, DTX4 / RFU, TFCP2 / Fold change vs veh, TFCP2 / RFU, GMCL1 /// GMCL1P1 / Fold change vs veh, GMCL1 /// GMCL1P1 / RFU, AEBP2 / Fold change vs veh, AEBP2 / RFU, SNHG1 /// SNORD22 /// SNORD25 /// SNORD26 /// SNORD27 /// SNORD28 /// SNORD29 /// SNORD31 / Fold change vs veh, SNHG1 /// SNORD22 /// SNORD25 /// SNORD26 /// SNORD27 /// SNORD28 /// SNORD29 /// SNORD31 / Fold change (Aza/veh), C12orf56 (ProbeSet 11735607_a_at) / Fold change (ACY-1035/veh), C12orf56 (ProbeSet 11735607_a_at) / Fold change (Aza/veh), FGFR1OP (ProbeSet 11751329_s_at) / Fold change (ACY-1035/veh), FGFR1OP (ProbeSet 11751329_s_at) / Fold change (Aza/veh), VPS36 (ProbeSet 11739960_a_at) / Fold change (ACY-1035/veh), VPS36 (ProbeSet 11739960_a_at) / RFU SYPL1 (11715823_x_at) / Fold change /veh SYPL1 (11715823_x_at) / RFU IGFBP7 (11715501_s_at) / Fold change /veh IGFBP7 (11715501_s_at) / RFU REEP3 (11722064_at) / Fold change /veh REEP3 (11722064_at) / RFU IGLL1 (11728026_x_at) / Fold change /veh IGLL1 (11728026_x_at): dose or concentration left out as unconfirmed",
  "conditions": "ProbeSet 11743567_s_at; LIST B",
  "data": [
    {"smiles": "Nc1ncn([C@@H]2O[C@H](CO)[C@@H](O)[C@H]2O)c(=O)n1", "note": "[azacitidine]", "values": [
      {"measurement": "RFU, ACBD3", "value": 255.44, "unit": "RFU"}
    ]}
  ]
}
